Paper PMC8387461, “T cell receptor recognition of hybrid insulin peptides bound to HLA-DQ8” (Nature Communications, 2021)

Tested on: CD4+ T cell clone A5.5
Assay: T cell stimulation assay, IFNγ ELISA, clone A5.5
Format: cell-based, human
Settings: primary clone A5.5, APC EBV-KJ, 24 h
Experimental: Fig. 2 Comparison of the stimulatory capacity of full-length proinsulin C-peptide and HIP on T1D CD4 + T cell clones. […] Titration of full-length 31-mer C-peptide ([…], (open circles) and 15mer C-peptide-IAPP2 HIP ([…] (filled circles). Antigen presenting cells (APC) were the EBV line, EBV-KJ, (2 × 10^4 cells/well). APC were cultured for 24 h with the same number (2 × 10^4 cells/well) of the primary CD4 + T-cell clone and the peptide concentration indicated. T-cell response to peptide were indicated by secretion of IFNγ which was measured in triplicate by ELISA and reported as pg/ml. Mean and standard deviations of triplicate IFNγ measurements are shown. Results are representative of two experiments for each clone.
For primary T1D CD4+ T cell clones, cells were thawed and used directly in functional assays. For T cell stimulation assays, cloned CD4+ T cells were incubated with BLCL KJ (; HLA-DQ8 + : HLA-DQA1*03:01, HLA-DQB1*03:02), as APCs, together with synthetic peptides. For the alanine scan experiments, each peptide was added to a final concentration of 10 μM. T cell response to antigen was measured as interferon gamma (IFNγ) secretion into the culture media. The IFNγ concentration in the culture media was determined by ELISA (Biolegend).
Supplementary Figure 8. […]
type) at each position P-3 to P12 are shown. IFNγ was measured in triplicate by ELISA, concentrations are shown in pg/ml. […]

GQVELGGGNAVEVLK [HIP]
sensitivity to HIP versus native proinsulin C-peptide: ten times more sensitive to the HIP peptide than native proinsulin C-peptide
